Results reported in patent US9260439B2, “Dihydropyrrolopyrimidine derivatives” (PFIZER INC., priority 2014, dated 2016).
pKi: −log10 of the molar value.

Biological target: truncated PI3Kα (p110α/iSH2 p85α) (Homo sapiens (Human), UniProt P42336)
Test: PI3KA_Act fluorescence polarization kinase assay (Ki)
Format: biochemical
Settings: 1 mM ATP
Outline: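 p110α/iSH2 p85α (0.5 nM) was reacted with 30 μM sonicated PIP2 in 50 mM HEPES pH 7.4, 150 mM NaCl, 5 mM MgCl2, 1 mM DTT and 0.05% CHAPS for 30 min at room temperature, then stopped with EDTA. PIP3 was detected by fluorescence polarization (GST-Grp1 PH domain/TAMRA-PIP3), and Ki came from a Morrison tight-binding fit.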

truncated PI3Kα (p110α/iSH2 p85α), sequence (P42336 whole entry, the tested form may be a part): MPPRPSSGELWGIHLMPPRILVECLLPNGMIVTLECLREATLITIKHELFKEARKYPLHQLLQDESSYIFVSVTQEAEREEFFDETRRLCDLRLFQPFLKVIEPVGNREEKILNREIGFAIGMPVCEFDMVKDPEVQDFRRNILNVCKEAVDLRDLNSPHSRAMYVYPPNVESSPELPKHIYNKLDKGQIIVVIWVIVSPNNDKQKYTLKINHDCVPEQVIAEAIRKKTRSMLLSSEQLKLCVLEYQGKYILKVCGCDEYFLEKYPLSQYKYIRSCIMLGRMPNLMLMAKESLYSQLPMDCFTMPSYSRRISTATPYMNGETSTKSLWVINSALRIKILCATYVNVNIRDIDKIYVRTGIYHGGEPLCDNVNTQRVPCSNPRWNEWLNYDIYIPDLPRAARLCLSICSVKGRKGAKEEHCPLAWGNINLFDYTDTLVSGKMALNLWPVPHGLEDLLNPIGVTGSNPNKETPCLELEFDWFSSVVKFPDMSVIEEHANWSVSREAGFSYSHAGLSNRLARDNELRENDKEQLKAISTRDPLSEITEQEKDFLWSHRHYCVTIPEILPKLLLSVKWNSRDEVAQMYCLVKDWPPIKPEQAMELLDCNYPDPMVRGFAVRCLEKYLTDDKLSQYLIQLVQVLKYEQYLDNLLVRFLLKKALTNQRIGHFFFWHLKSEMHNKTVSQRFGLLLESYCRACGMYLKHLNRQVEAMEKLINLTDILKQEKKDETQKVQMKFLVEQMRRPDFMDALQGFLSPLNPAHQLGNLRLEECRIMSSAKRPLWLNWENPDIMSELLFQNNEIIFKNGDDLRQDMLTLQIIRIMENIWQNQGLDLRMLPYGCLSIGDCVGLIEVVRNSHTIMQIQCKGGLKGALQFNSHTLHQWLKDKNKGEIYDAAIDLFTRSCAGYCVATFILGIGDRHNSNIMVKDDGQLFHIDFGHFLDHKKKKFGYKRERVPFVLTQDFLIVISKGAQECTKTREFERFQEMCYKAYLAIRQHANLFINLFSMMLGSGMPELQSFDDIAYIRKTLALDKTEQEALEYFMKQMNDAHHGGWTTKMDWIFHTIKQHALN

`C[C@]1(N2CCc3c(-c4cnc(N)nc4)nc(N4CCOCC4)nc32)CCN(C(=O)OC2CNC2)C1.Cl` [Example 415, azetidin-3-yl (3S)-3-[4-(2-aminopyrimidin-5-yl)-2-(morpholin-4-yl)-5,6-dihydro-7H-pyrrolo[2,3-d]pyrimidin-7-yl]-3-methylpyrrolidine-1-carboxylate hydrochloride] was tested, and the “PI3KA_Act Ki” value was <0.018 nM.
In the case of `CN1CC[C@@H](OC(=O)N2CC[C@](C)(N3CCc4c(-c5cnc(N)nc5)nc(N5CCOCC5)nc43)C2)C1` [Example 416, (3R)-1-methylpyrrolidin-3-yl (3S)-3-[4-(2-aminopyrimidin-5-yl)-2-(morpholin-4-yl)-5,6-dihydro-7H-pyrrolo[2,3-d]pyrimidin-7-yl]-3-methylpyrrolidine-1-carboxylate], the “PI3KA_Act Ki” value was <0.018 nM.
With `CN1CC[C@H](OC(=O)N2CC[C@](C)(N3CCc4c(-c5cnc(N)nc5)nc(N5CCOCC5)nc43)C2)C1` [Example 417, (3S)-1-methylpyrrolidin-3-yl (3S)-3-[4-(2-aminopyrimidin-5-yl)-2-(morpholin-4-yl)-5,6-dihydro-7H-pyrrolo[2,3-d]pyrimidin-7-yl]-3-methylpyrrolidine-1-carboxylate] the “PI3KA_Act Ki” value was <0.018 nM.

In order of falling “PI3KA_Act Ki” value:
1. CN[C@H]1C[C@@H](N2CCc3c(-c4cnc(N)nc4)nc(N4CCOC[C@@H]4C)nc32)C1.Cl [Example 444, 5-{7-[cis-3-(methylamino)cyclobutyl]-2-[(3S)-3-methylmorpholin-4-yl]-6,7-dihydro-5H-pyrrolo[2,3-d]pyrimidin-4-yl}pyrimidin-2-amine hydrochloride]  2.125 nM
2. CN1CC[C@@](C)(N2CCc3c(-c4cnc(N)nc4)nc(N4CCOCC4)nc32)C1 [Example 419, 5-{7-[(3R)-1,3-dimethylpyrrolidin-3-yl]-2-(morpholin-4-yl)-6,7-dihydro-5H-pyrrolo[2,3-d]pyrimidin-4-yl}pyrimidin-2-amine]  1.990 nM
3. C[C@H]1COCCN1c1nc(-c2cnc(N)nc2)c2c(n1)N([C@H]1C[C@@H](N)C1)CC2.Cl [Example 442, 5-{7-(cis-3-aminocyclobutyl)-2-[(3S)-3-methylmorpholin-4-yl]-6,7-dihydro-5H-pyrrolo[2,3-d]pyrimidin-4-yl}pyrimidin-2-amine hydrochloride]  1.349 nM
4. CN[C@H]1C[C@H](N2CCc3c(-c4cnc(N)nc4)nc(N4CCOC[C@@H]4C)nc32)C1.Cl [Example 445, 5-{7-[trans-3-(methylamino)cyclobutyl]-2-[(3S)-3-methylmorpholin-4-yl]-6,7-dihydro-5H-pyrrolo[2,3-d]pyrimidin-4-yl}pyrimidin-2-amine hydrochloride]  0.993 nM
5. C[C@H]1COCCN1c1nc(-c2cnc(N)nc2)c2c(n1)N([C@H]1C[C@H](N)C1)CC2.Cl [Example 443, 5-{7-(trans-3-aminocyclobutyl)-2-[(3S)-3-methylmorpholin-4-yl]-6,7-dihydro-5H-pyrrolo[2,3-d]pyrimidin-4-yl}pyrimidin-2-amine hydrochloride]  0.944 nM
6. CC1(N2CCc3c(-c4cnc(N)nc4)nc(N4CCOCC4)nc32)CCNCC1.Cl [Example 430, 5-[7-(4-methylpiperidin-4-yl)-2-(morpholin-4-yl)-6,7-dihydro-5H-pyrrolo[2,3-d]pyrimidin-4-yl]pyrimidin-2-amine hydrochloride]  0.785 nM
7. C[C@H]1COCCN1c1nc(-c2cnc(N)nc2)c2c(n1)N([C@H]1C[C@@H](NC(=O)OC(C)(C)C)C1)CC2 [Example 447, tert-butyl (cis-3-{4-(2-aminopyrimidin-5-yl)-2-[(3S)-3-methylmorpholin-4-yl]-5,6-dihydro-7H-pyrrolo[2,3-d]pyrimidin-7-yl}cyclobutyl)carbamate]  0.644 nM
8. CS(=O)(=O)N1C[C@@H]2C[C@]2(N2CCc3c(-c4cnc(N)nc4)nc(N4CCOCC4)nc32)C1 [Example 437, 5-{7-[(1R,5S)-3-(methylsulfonyl)-3-azabicyclo[3.1.0]hex-1-yl]-2-(morpholin-4-yl)-6,7-dihydro-5H-pyrrolo[2,3-d]pyrimidin-4-yl}pyrimidin-2-amine]  0.603 nM
9. CC(C)N1CC[C@](C)(N2CCc3c(-c4cnc(N)nc4)nc(N4CCOCC4)nc32)C1 [Example 420, 5-{7-[(3S)-3-methyl-1-(propan-2-yl)pyrrolidin-3-yl]-2-(morpholin-4-yl)-6,7-dihydro-5H-pyrrolo[2,3-d]pyrimidin-4-yl}pyrimidin-2-amine]  0.601 nM
10. CC(=O)N1CC(N2CCc3c(-c4cnc(N)nc4)nc(N4CCOC[C@@H]4C)nc32)C1 [Example 451, 1-(3-{4-(2-aminopyrimidin-5-yl)-2-[(3S)-3-methylmorpholin-4-yl]-5,6-dihydro-7H-pyrrolo[2,3-d]pyrimidin-7-yl}azetidin-1-yl)ethanone]  0.595 nM
11. COC(=O)C(C)(C)N1CC[C@](C)(N2CCc3c(-c4cnc(N)nc4)nc(N4CCOCC4)nc32)C1 [Example 423, methyl 2-{(3S)-3-[4-(2-aminopyrimidin-5-yl)-2-(morpholin-4-yl)-5,6-dihydro-7H-pyrrolo[2,3-d]pyrimidin-7-yl]-3-methylpyrrolidin-1-yl}-2-methylpropanoate]  0.445 nM
12. C[C@H]1COCCN1c1nc(-c2cnc(N)nc2)c2c(n1)N([C@H]1C[C@H](NC(=O)OC(C)(C)C)C1)CC2 [Example 446, tert-butyl (trans-3-{4-(2-aminopyrimidin-5-yl)-2-[(3S)-3-methylmorpholin-4-yl]-5,6-dihydro-7H-pyrrolo[2,3-d]pyrimidin-7-yl}cyclobutyl)carbamate]  0.433 nM
13. CC(C)(O)CN1CC[C@](C)(N2CCc3c(-c4cnc(N)nc4)nc(N4CCOCC4)nc32)C1 [Example 422, 1-{(3S)-3-[4-(2-aminopyrimidin-5-yl)-2-(morpholin-4-yl)-5,6-dihydro-7H-pyrrolo[2,3-d]pyrimidin-7-yl]-3-methylpyrrolidin-1-yl}-2-methylpropan-2-ol]  0.415 nM
14. CC(C)(C(N)=O)N1CC[C@](C)(N2CCc3c(-c4cnc(N)nc4)nc(N4CCOCC4)nc32)C1 [Example 424, 2-{(3S)-3-[4-(2-aminopyrimidin-5-yl)-2-(morpholin-4-yl)-5,6-dihydro-7H-pyrrolo[2,3-d]pyrimidin-7-yl]-3-methylpyrrolidin-1-yl}-2-methylpropanamide]  0.321 nM
15. CN1CC[C@](C)(N2CCc3c(-c4cnc(N)nc4)nc(N4CCOCC4)nc32)C1 [Example 418, 5-{7-[(3S)-1,3-dimethylpyrrolidin-3-yl]-2-(morpholin-4-yl)-6,7-dihydro-5H-pyrrolo[2,3-d]pyrimidin-4-yl}pyrimidin-2-amine]  0.320 nM
16. C[C@]1(N2CCc3c(-c4cnc(N)nc4)nc(N4CCOCC4)nc32)CCN(C2CCCC2)C1 [Example 425, 5-{7-[(3S)-1-cyclopentyl-3-methylpyrrolidin-3-yl]-2-(morpholin-4-yl)-6,7-dihydro-5H-pyrrolo[2,3-d]pyrimidin-4-yl}pyrimidin-2-amine]  0.311 nM
17. CS(=O)(=O)N1C[C@H]2C[C@@]2(N2CCc3c(-c4cnc(N)nc4)nc(N4CCOCC4)nc32)C1 [Example 436, 5-{7-[(1S,5R)-3-(methylsulfonyl)-3-azabicyclo[3.1.0]hex-1-yl]-2-(morpholin-4-yl)-6,7-dihydro-5H-pyrrolo[2,3-d]pyrimidin-4-yl}pyrimidin-2-amine]  0.189 nM
18. C[C@H]1COCCN1c1nc(-c2cnc(N)nc2)c2c(n1)N(C1(C)CNC1)CC2.Cl [Example 450, 5-{7-(3-methylazetidin-3-yl)-2-[(3S)-3-methylmorpholin-4-yl]-6,7-dihydro-5H-pyrrolo[2,3-d]pyrimidin-4-yl}pyrimidin-2-amine hydrochloride]  0.167 nM
19. CC(=O)N1CC(C)(N2CCc3c(-c4cnc(N)nc4)nc(N4CCOC[C@@H]4C)nc32)C1 [Example 452, 1-(3-{4-(2-aminopyrimidin-5-yl)-2-[(3S)-3-methylmorpholin-4-yl]-5,6-dihydro-7H-pyrrolo[2,3-d]pyrimidin-7-yl}-3-methylazetidin-1-yl)ethanone]  0.090 nM
20. C[C@]1(N2CCc3c(-c4cnc(N)nc4)nc(N4CCOCC4)nc32)CCN(CC(F)F)C1 [Example 421, 5-{7-[(3S)-1-(2,2-difluoroethyl)-3-methylpyrrolidin-3-yl]-2-(morpholin-4-yl)-6,7-dihydro-5H-pyrrolo[2,3-d]pyrimidin-4-yl}pyrimidin-2-amine]  0.071 nM
21. CC(C)(C)OC(=O)N1CCC(C)(N2CCc3c(-c4cnc(N)nc4)nc(N4CCOCC4)nc32)CC1 [Example 433, tert-butyl 4-[4-(2-aminopyrimidin-5-yl)-2-(morpholin-4-yl)-5,6-dihydro-7H-pyrrolo[2,3-d]pyrimidin-7-yl]-4-methylpiperidine-1-carboxylate]  0.024 nM

In order of falling pKi:
1. CS(=O)(=O)N1C[C@@H]2C[C@H]1[C@H]2N1CCc2c(-c3cnc(N)nc3)nc(N3CCOCC3)nc21 [Example 441, 5-{7-[(1S,4S,5S)-2-(methylsulfonyl)-2-azabicyclo[2.1.1]hex-5-yl]-2-(morpholin-4-yl)-6,7-dihydro-5H-pyrrolo[2,3-d]pyrimidin-4-yl}pyrimidin-2-amine]  9.36
2. CC(C)(C)OC(=O)N1C[C@@H]2C[C@H]1[C@H]2N1CCc2c(-c3cnc(N)nc3)nc(N3CCOCC3)nc21 [Example 438, tert-butyl (1S,4S,5S)-5-[4-(2-aminopyrimidin-5-yl)-2-(morpholin-4-yl)-5,6-dihydro-7H-pyrrolo[2,3-d]pyrimidin-7-yl]-2-azabicyclo[2.1.1] hexane-2-carboxylate]  8.13
